The source of these data is patent publication US7893066B2, “Pyridol[2,3-B]pyrazinones for use as stearoyl CoA desaturase inhibitors” (Gilead Palo Alto, Inc., priority 2006, dated 2011).

The test addresses T1, stearoyl-CoA desaturase (SCD) (Rattus norvegicus, UniProt P07308).
T1 construct: from tissue; host or cells: liver microsomes of male Sprague Dawley rats, with SCD induced by a carbohydrate-rich diet
T1 sequence (P07308 1-358): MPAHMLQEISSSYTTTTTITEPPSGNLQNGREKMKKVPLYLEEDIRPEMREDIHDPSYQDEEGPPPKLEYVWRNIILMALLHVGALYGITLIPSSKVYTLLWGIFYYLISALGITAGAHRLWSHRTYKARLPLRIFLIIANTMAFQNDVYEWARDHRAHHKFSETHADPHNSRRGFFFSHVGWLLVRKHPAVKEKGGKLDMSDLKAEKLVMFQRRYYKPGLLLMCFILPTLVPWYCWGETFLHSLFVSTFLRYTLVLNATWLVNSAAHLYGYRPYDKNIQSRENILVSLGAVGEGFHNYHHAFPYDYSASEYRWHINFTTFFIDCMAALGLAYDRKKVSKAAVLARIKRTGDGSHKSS
As to the kind of experiment: SCD assay, rat liver microsomes with [3H]stearoyl CoA (adapted from Talamo and Bloch). The test is classed as biochemical. Particulars: second table, same SCD assay. From the text: The identification of compounds of the invention as SCD inhibitors was readily accomplished using the SCD enzyme and microsomal assay procedure described in Talamo and Bloch (1969) Analytical Biochemistry 29:300-304.
The rat liver microsomes were collected according to the procedure described in Ozols (1990) Methods Enzm, 182:225.
Male Spraque Dawley Rats were placed on regimented fasting protocol for one week to stimulate SCD enzymatic activity. 48-hour periods were alternated between feeding and fasting to induce and down-regulate SCD activity with SCD activity being induced via carbohydrate rich diet prior to liver perfusion and collection.
The rats were anesthetized with Isoflurane inhalation anesthetic, the liver perfused with cold phosphate buffered saline (PBS), weighed, and chilled in cold homogenization buffer (250 mM sucrose, 10 mM Tris, 1 mM EDTA, pH 7.6.
The livers were finely minced and placed in homogenization tube. 40 mL of homogenization buffer was added to the homogenization tube and the liver homogenized and centrifuged in a pre-chilled SLA-600 TC at 800G rotor for 10 min at 4° C.
Following centrifugation, the supernatant was collected and the pellet removed and discarded. This supernatant was then centrifuged at 10,000G for 35 minutes. Following centrifugation, the supernatant was collected and the pellet discarded. The supernatant was further centrifuged in a pre-chilled 45-Ti rotor at 130,000 G (41,000 RPM) for 90 minutes at 4° C.
The supernatant was then aspirated off and the collected microsomal pellet washed in 25 mL of Glycerol PBS (1×PBS 7.4, 20% Glycerol) and resuspended in 4-5 volumes of Glycerol PBS.
The protein concentration of the microsomal preparation was determined by BCA assay (Pierce) and the microsomes were aliquoted and stored at −80° C.
Biobeads were ground to a smaller size in a mortar and pestle and filtered through 300 μM mesh and then resuspended in 3.6% TCA.
SCD was determined in the desaturase assay buffer. This assay buffer contained 0.1 M Tris buffer, pH 7.2, 2 mM NADH, 4.8 mM ATP, 0.5 mM CoA, 4.8 mM MgCl2, and 0.1% BSA.
1 μl of each compound of Formula I was added to an assay plate by a low volume (0.5-10 μL) multichannel pipette. A DMSO control was also prepared. The microsomes were quickly thawed and added to assay buffer so that a concentration of 1-0.1 mg/ml was achieved (0.5-0.05 mg/ml assay final). 50 μl of the microsome suspension in assay buffer was then added into each well in the compound assay plate, the plate was covered, and the microsomes preincubated with the compounds for 30-60 minutes on the orbital shaker, 50-75 rpm, at room temperature.
After preincubation, the reaction was initiated by the addition of 50 μl of substrate solution (20 μM Stearoyl CoA, [3H]Stearoyl CoA, 74nCi) to the preincubated microsomes/compound suspensions in MilliQ (Millipore) H2O. The reaction mixtures were then incubated for 45 minutes on the orbital shaker at 50-75 rpm at room temperature.
The reaction was terminated by the addition of 10 μl of 21% trichloroacetic acid (TCA) to the reaction mixture followed incubation on the orbital shaker for 30 minutes at 50-75 rpm at room temperature followed by centrifugation for 5 minutes at 3700 rpm.
50 μl of a 6% Bio-Bead suspension in H2O was added to the reaction mixture and the assay plate was sealed. The Bio-Bead mixture was incubated on the orbital shaker for 1 to 24 hours, 100-150 rpm at room temperature, and then the mixture was centrifuged at 2000g for 5 minutes to pellet the Bio-Beads.
25 μl of the supernatant was harvested from each well and transferred to a detection plate. 100 μl of OptiPhase SuperMix scinitillation cocktail (containing sufficient NaOH to neutralize the TCA) was added and the solutions mixed by vigorous shaking (300-400 rpm) for 5 minutes at room temperature.
(In general: Liver microsomes are a subcellular fraction often used to study metabolism.)

`Cc1nc2ccc(NCc3cccc(C(F)(F)F)c3)cc2n(CCNC(=O)CCO)c1=O` [compound 49, 3-hydroxy-N-(2-(3-methyl-2-oxo-7-(3-(trifluoromethyl)benzylamino)quinoxalin-1(2H)-yl)ethyl)propanamide] displayed an IC50 of 1100 nM.

`COc1ccc(-c2nc3ccc(NCc4cc(C(F)(F)F)ccn4)nc3n(CCNC(C)=O)c2=O)cc1` [compound 4, N-(2-(2-(4-methoxyphenyl)-3-oxo-6-((4-(trifluoromethyl)pyridin-2-yl)methylamino)pyrido[2,3-b]pyrazin-4(3H)-yl)ethyl)acetamide] came in with an IC50 of 180 nM.

For `Cc1nc2ccc(NCc3cccc(C(F)(F)F)c3)cc2n(CCC(=O)NCCO)c1=O` [compound 50, N-(2-hydroxyethyl)-3-(3-methyl-2-oxo-7-(3-(trifluoromethyl)benzylamino)quinoxalin-1(2H)-yl)propanamide], the midpoint of inhibition, the IC50, lay at 230 nM.

Molecule `COc1ccc(-c2nc3ccc(NCc4cccc(F)c4)nc3n(CCNC(C)=O)c2=O)cc1` [compound 10, N-(2-(6-(3-fluorobenzylamino)-2-(4-methoxyphenyl)-3-oxopyrido[2,3-b]pyrazin-4(3H)-yl)ethyl)acetamide] showed an IC50 of 18000 nM.

`Cc1nc2ccc(NCc3cccc(C(F)(F)F)c3)nc2n(CCCC(N)=O)c1=O` [compound 36, 4-(2-methyl-3-oxo-6-(3-(trifluoromethyl)benzylamino)pyrido[2,3-b]pyrazin-4(3H)-yl)butanamide]: half-maximal inhibition (IC50) required 1600 nM.

Molecule “N-(2-(3-(4-methoxyphenyl)-7-(3-methylbenzylamino)-2-oxoquinoxalin-1(2H)-yl)ethyl)acetamide [compound 56]” gave an IC50 of 18 nM. Against the preceding molecule, the IC50 is about 89-fold lower.

“3-(3-oxo-2-(4-propylphenyl)-6-(3-(trifluoromethyl)benzylamino)pyrido[2,3-b]pyrazin-4(3H)-yl)propanamide [compound 31]” came in with an IC50 of 380 nM.

The molecule “(R)-3-(2-(4-methoxyphenyl)-3-oxo-6-(3-(trifluoromethyl)benzylamino)pyrido[2,3-b]pyrazin-4(3H)-yl)butanamide [compound 22]” came in with an IC50 of 67 nM.

As for `COc1ccc(-c2nc3ccc(NCc4ccc(Cl)c(Cl)c4)nc3n(CCNC(=O)CN)c2=O)cc1` [compound 40, 2-amino-N-(2-(6-(3,4-dichlorobenzylamino)-2-(4-methoxyphenyl)-3-oxopyrido[2,3-b]pyrazin-4(3H)-yl)ethyl)acetamide], the IC50 turned out to be 1900 nM.

On to `CC(=O)NCCn1c(=O)cnc2ccc(NCc3ccc(Cl)c(Cl)c3)nc21` [compound 14, N-(2-(6-(3,4-dichlorobenzylamino)-3-oxopyrido[2,3-b]pyrazin-4(3H)-yl)ethyl)acetamide], for which inhibition was half-maximal at 510 nM (IC50).

In turn, “4-(2-(4-methoxyphenyl)-3-oxo-6-(3-(trifluoromethyl)benzylamino)pyrido[2,3-b]pyrazin-4(3H)-yl)butanamide [compound 35]” registered an IC50 of 150 nM.

In the case of `COC(=O)c1cccc(CNc2ccc3nc(-c4ccc(OC)cc4)c(=O)n(CCNC(C)=O)c3n2)c1` [compound 15, methyl 3-((4-(2-acetamidoethyl)-2-(4-methoxyphenyl)-3-oxo-3,4-dihydropyrido[2,3-b]pyrazin-6-ylamino)methyl)benzoate], the IC50 amounted to 19000 nM.

`CNC(=O)CCn1c(=O)c(-c2ccc(OC)cc2)nc2ccc(NCc3cccc(C(F)(F)F)c3)nc21` [compound 19, 3-(2-(4-methoxyphenyl)-3-oxo-6-(3-(trifluoromethyl)benzylamino)pyrido[2,3-b]pyrazin-4(3H)-yl)-N-methylpropanamide]: it took 360 nM to reach half-maximal inhibition (IC50).

Consider `COc1ccc(-c2nc3ccc(NCCc4ccc(Cl)cc4)cc3n(CCNC(C)=O)c2=O)cc1` [compound 58, N-(2-(7-(4-chlorophenethylamino)-3-(4-methoxyphenyl)-2-oxoquinoxalin-1(2H)-yl)ethyl)acetamide], for which half-maximal inhibition (IC50) was put at 82 nM.

As for `COc1ccc(-c2nc3ccc(NCc4cccc(C)c4)nc3n(CCNC(C)=O)c2=O)cc1` [compound 18, N-(2-(2-(4-methoxyphenyl)-6-(3-methylbenzylamino)-3-oxopyrido[2,3-b]pyrazin-4(3H)-yl)ethyl)acetamide], 380 nM corresponded to half-maximal inhibition (IC50).

In turn, `CONC(=O)CCn1c(=O)c(-c2ccc(OC)cc2)nc2ccc(NCc3cccc(C(F)(F)F)c3)nc21` [compound 16, N-methoxy-3-(2-(4-methoxyphenyl)-3-oxo-6-(3-(trifluoromethyl)benzylamino)pyrido[2,3-b]pyrazin-4(3H)-yl)propanamide] yielded an IC50 of 930 nM. This IC50 is about 2.4-fold higher than that of the molecule before.

The molecule “N-(2-(6-(3-methoxybenzylamino)-2-(4-methoxyphenyl)-3-oxopyrido[2,3-b]pyrazin-4(3H)-yl)ethyl)acetamide [compound 13]” came in with an IC50 of 760 nM.

“N-(2-(3-methyl-2-oxo-7-(3-(trifluoromethyl)benzylamino)quinoxalin-1(2H)-yl)ethyl)thiophene-3-carboxamide [compound 51]” yielded an IC50 of 2.6 nM.

As for `COc1ccc(-c2nc3ccc(NCc4ccc(Cl)c(Cl)c4)nc3n(CCCC(N)=O)c2=O)cc1` [compound 11, 4-(6-(3,4-dichlorobenzylamino)-2-(4-methoxyphenyl)-3-oxopyrido[2,3-b]pyrazin-4(3H)-yl)butanamide], it took 150 nM to reach half-maximal inhibition (IC50). This IC50 is about 58-fold higher than that of the molecule before.

`COc1ccc(-c2nc3ccc(NCc4cccnc4)nc3n(CCNC(C)=O)c2=O)cc1` [compound 9, N-(2-(2-(4-methoxyphenyl)-3-oxo-6-(pyridin-3-ylmethylamino)pyrido[2,3-b]pyrazin-4(3H)-yl)ethyl)acetamide]: the IC50 worked out at 30000 nM.

On to `CC(=O)NCCn1c(=O)c(-c2ccc(F)cc2)nc2ccc(NCc3cccc(C(F)(F)F)c3)nc21` [compound 28, N-(2-(2-(4-fluorophenyl)-3-oxo-6-(3-(trifluoromethyl)benzylamino)pyrido[2,3-b]pyrazin-4(3H)-yl)ethyl)acetamide], for which the IC50 is 390 nM.

The molecule `CCc1ccc(-c2nc3ccc(NCc4cccc(C(F)(F)F)c4)nc3n(CCNC(C)=O)c2=O)cc1` [compound 27, N-(2-(2-(4-ethylphenyl)-3-oxo-6-(3-(trifluoromethyl)benzylamino)pyrido[2,3-b]pyrazin-4(3H)-yl)ethyl)acetamide] registered an IC50 of 93 nM.

Regarding `COc1ccc(-c2nc3ccc(NCc4ccc(Cl)c(Cl)c4)nc3n(C(C)CC(N)=O)c2=O)cc1` (centres unmarked) [compound 5, 3-(6-(3,4-dichlorobenzylamino)-2-(4-methoxyphenyl)-3-oxopyrido[2,3-b]pyrazin-4(3H)-yl)butanamide], the IC50 was 53 nM.

With “N-(2-(6-(3,4-dichlorobenzylamino)-2-(4-methoxyphenyl)-3-oxopyrido[2,3-b]pyrazin-4(3H)-yl)ethyl)-2-hydroxyacetamide [compound 34]”, the IC50 was found to be 120 nM.

On to “2,3-dihydroxy-N-(2-(3-methyl-2-oxo-7-(3-(trifluoromethyl)benzylamino)quinoxalin-1(2H)-yl)ethyl)propanamide [compound 52]”, for which inhibition was half-maximal at 360 nM (IC50).

“benzyl 1-(2-acetamidoethyl)-3-(3,4-dichlorophenyl)-2-oxo-1,2-dihydroquinoxalin-6-ylcarbamate [compound 47]” came in with an IC50 of 2300 nM.

Broadly, the IC50 is the concentration that gives 50% inhibition.
